The source made the active and inactive calls. The calls are words filed in the database; no cut-off is given here.
What was measured:
Blood [1] = assay: Pro-inflammatory activity in human whole blood assessed as TNF-alpha production upto 50 uM; assay type: functional, tissue-based
Blood [2] = assay: Pro-inflammatory activity in human whole blood assessed as IL1-beta production upto 50 uM; assay type: functional, tissue-based
Blood [3] = assay: Pro-inflammatory activity in human whole blood assessed as IL-6 production upto 50 uM; assay type: functional, tissue-based
Blood [4] = assay: Pro-inflammatory activity in human whole blood assessed as IL-8 production upto 50 uM; assay type: functional, tissue-based
Blood [5] = assay: Pro-inflammatory activity in human whole blood assessed as IL-12 production upto 50 uM; assay type: functional, tissue-based
Blood [6] = assay: Pro-inflammatory activity in human whole blood assessed as IL-18 production upto 50 uM; assay type: functional, tissue-based
Blood [7] = assay: Antiinflammatory activity in human whole blood assessed as IL-10 production upto 50 uM; assay type: functional, tissue-based
HEK293 [8] = assay: Transactivation of NF-kappaB expressed in HEK293 cells co-transfected TLR2/TLR3/TLR4/TLR5/TLR7/TLR8/TLR9/Nod-1 by alkaline phosphatase reporter gene assay; assay type: cell-based
HEK293 [9] = assay: Transactivation of NF-kappaB expressed in HEK293 cells by alkaline phosphatase reporter gene assay; assay type: cell-based
PBMC [10] = assay: Immunostimulatory activity against human PBMC by transcriptional profiling; assay type: functional, cell-based
[11] = target: T1, C-C chemokine receptor type 1 (Homo sapiens, UniProt P32246); assay: Agonist activity at human CCR1 expressed in CHO cells by cellular dielectric spectroscopy; assay type: functional, cell-based
T1 sequence (P32246 whole entry): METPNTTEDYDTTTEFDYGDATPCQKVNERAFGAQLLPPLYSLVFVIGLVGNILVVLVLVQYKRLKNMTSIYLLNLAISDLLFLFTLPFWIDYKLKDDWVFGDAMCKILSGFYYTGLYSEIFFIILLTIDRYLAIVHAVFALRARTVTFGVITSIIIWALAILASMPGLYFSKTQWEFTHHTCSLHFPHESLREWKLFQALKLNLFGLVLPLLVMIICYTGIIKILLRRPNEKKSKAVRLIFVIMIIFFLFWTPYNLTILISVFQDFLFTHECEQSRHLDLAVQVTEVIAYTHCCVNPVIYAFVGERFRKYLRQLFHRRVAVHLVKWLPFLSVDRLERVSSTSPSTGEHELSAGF

[12] = target: C-C chemokine receptor type 2 (Homo sapiens) (UniProt P41597); assay: Agonist activity at CCR2 expressed in CHO cells at 10^-6 to 10^-5 M by cellular dielectric spectroscopy; assay type: functional, cell-based
[13] = target: T2, C-C chemokine receptor type 3 (Homo sapiens) (UniProt P51677); assay: Agonist activity at CCR3 expressed in CHO cells at 10^-6 to 10^-5 M by cellular dielectric spectroscopy; assay type: functional, cell-based
T2 sequence (whole entry): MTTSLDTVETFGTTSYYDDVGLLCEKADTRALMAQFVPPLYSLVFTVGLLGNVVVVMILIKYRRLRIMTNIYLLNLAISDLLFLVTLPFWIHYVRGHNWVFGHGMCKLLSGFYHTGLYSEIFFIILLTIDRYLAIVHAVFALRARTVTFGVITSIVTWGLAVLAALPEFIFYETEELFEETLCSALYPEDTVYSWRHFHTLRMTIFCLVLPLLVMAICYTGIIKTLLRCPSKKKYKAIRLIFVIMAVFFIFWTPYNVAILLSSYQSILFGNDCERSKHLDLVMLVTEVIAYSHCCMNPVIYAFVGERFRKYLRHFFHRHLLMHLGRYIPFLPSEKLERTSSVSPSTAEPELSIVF

[14] = target: T3, C-X-C chemokine receptor type 2 (Homo sapiens) (UniProt P25025); assay: Agonist activity at CXCR2 expressed in CHO cells at 10^-6 to 10^-5 M by cellular dielectric spectroscopy; assay type: functional, cell-based
T3 sequence (whole entry): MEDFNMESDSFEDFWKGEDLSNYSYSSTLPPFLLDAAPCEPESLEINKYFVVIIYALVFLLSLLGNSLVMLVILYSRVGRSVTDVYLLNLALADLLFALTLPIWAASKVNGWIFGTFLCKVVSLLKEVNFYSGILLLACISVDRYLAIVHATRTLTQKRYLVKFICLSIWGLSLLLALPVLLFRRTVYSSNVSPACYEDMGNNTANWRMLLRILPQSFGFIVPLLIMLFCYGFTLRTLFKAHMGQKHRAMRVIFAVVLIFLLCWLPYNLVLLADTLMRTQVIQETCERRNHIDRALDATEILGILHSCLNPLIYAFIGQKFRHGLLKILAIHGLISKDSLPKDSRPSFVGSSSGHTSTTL

[15] = target: C-X-C chemokine receptor type 4 (Homo sapiens) (UniProt P61073); assay: Agonist activity at CXCR4 expressed in CHO cells at 10^-6 to 10^-5 M by cellular dielectric spectroscopy; assay type: functional, cell-based
Mus musculus [16] = assay: Adjuvantic activity in CF-1 mouse assessed as increase in bovine alpha-lactalbumin-elicited antibodies production at 50 ug, im followed by booster dose administered on day 14 measured after 21 days by surface-plasmon resonance; assay type: functional, organism-based
Mus musculus [17] = assay: Adjuvantic activity in CF-1 mouse assessed as increase in bovine alpha-lactalbumin-elicited IgG2a production at 50 ug, im followed by booster dose administered on day 14 measured after 21 days; assay type: functional, organism-based
Mus musculus [18] = assay: Adjuvantic activity in CF-1 mouse assessed as increase in bovine alpha-lactalbumin-elicited IgG1 production at 50 ug, im followed by booster dose administered on day 14 measured after 21 days; assay type: functional, organism-based
Salmonella typhimurium [19] = assay: Mutagenic activity in Salmonella Typhimurium TA100-S9 by Ames test; assay type: toxicity, organism-based; conditions: salmonella enterica subsp. enterica serovar typhimurium
Mus musculus [20] = assay: Toxicity in CF-1 mouse assessed as mortality up to 100 mg/kg, ip administered as single dose measured at 48 hrs; assay type: organism-based; set-up: dose 100 mg/kg, route intraperitoneal; conditions: in vivo
Salmonella typhimurium [21] = assay: Mutagenic activity in Salmonella Typhimurium TA1535-S9 by Ames test; assay type: toxicity, organism-based; conditions: salmonella enterica subsp. enterica serovar typhimurium
Salmonella typhimurium [22] = assay: Mutagenic activity in Salmonella Typhimurium TA98-S9 by Ames test; assay type: toxicity, organism-based; conditions: salmonella enterica subsp. enterica serovar typhimurium
PBMC [23] = assay: Modulation of inflammation in human PBMC by transcriptional profiling; assay type: functional, cell-based

Chain of C-C chemokine receptor type 2 (Homo sapiens) (P41597 whole entry, looked up): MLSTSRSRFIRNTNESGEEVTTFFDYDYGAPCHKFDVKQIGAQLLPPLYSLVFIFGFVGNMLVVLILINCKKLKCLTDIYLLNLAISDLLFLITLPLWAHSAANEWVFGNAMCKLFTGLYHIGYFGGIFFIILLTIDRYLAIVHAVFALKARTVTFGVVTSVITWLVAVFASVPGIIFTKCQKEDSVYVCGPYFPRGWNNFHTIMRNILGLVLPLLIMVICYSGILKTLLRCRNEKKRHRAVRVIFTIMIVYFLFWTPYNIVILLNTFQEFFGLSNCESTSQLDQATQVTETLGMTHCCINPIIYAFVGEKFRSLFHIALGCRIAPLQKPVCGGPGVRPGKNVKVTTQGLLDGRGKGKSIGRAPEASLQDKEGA
Chain of C-X-C chemokine receptor type 4 (Homo sapiens) (P61073 whole entry): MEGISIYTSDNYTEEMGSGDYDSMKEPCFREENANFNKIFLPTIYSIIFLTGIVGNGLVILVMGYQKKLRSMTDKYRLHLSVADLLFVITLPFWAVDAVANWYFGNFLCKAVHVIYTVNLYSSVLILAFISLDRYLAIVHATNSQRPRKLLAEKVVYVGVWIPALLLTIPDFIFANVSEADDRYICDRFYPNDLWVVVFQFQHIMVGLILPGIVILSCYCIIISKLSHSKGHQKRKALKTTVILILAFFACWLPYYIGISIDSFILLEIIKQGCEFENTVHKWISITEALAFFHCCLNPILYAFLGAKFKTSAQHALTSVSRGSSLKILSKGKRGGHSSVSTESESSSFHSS

CCCc1nc2c(N)nc3ccccc3c2s1
Activity (Blood [1]): Active
Activity (Blood [2]): Active
Activity (Blood [3]): Active
Activity (Blood [4]): Active
Activity (Blood [5]): Active
Activity (Blood [6]): Active
Activity (Blood [7]): Active

Clc1ccc2c(NCCCCCCCCCCCCNc3ccnc4cc(Cl)ccc34)ccnc2c1
Activity (HEK293 [8]): inactive

Clc1ccc2c(NCCCCNc3ccnc4cc(Cl)ccc34)ccnc2c1
Activity (HEK293 [8]): inactive
Activity (HEK293 [9]): Active
Activity (Blood [1]): inactive
Activity (Blood [2]): inactive
Activity (Blood [3]): inactive
Activity (Blood [4]): inactive
Activity (Blood [5]): inactive
Activity (Blood [6]): inactive
Activity (Blood [7]): inactive
Activity (PBMC [10]): inactive
EC50 [11]: 2000 nM
Activity [12]: inactive
Activity [13]: inactive
Activity [14]: inactive
Activity [15]: inactive
Activity (Mus musculus [16]): Active
Activity (Mus musculus [17]): Active
Activity (Mus musculus [18]): Active
Activity (Salmonella typhimurium [19]): Non-toxic
Activity (Mus musculus [20]): Non-toxic
Activity (Salmonella typhimurium [21]): Non-toxic
Activity (Salmonella typhimurium [22]): Non-toxic
Activity (PBMC [23]): inactive

Clc1ccc2c(NCCNc3ccnc4cc(Cl)ccc34)ccnc2c1
Activity (HEK293 [8]): inactive

Clc1ccc2c(NCCCCCCCNc3ccnc4cc(Cl)ccc34)ccnc2c1
Activity (HEK293 [8]): inactive

CCN(CC)CCCC(C)Nc1ccnc2cc(Cl)ccc12 (stereo not given)
Activity (HEK293 [8]): inactive

Clc1ccc2c(NCCCCCCCCNc3ccnc4cc(Cl)ccc34)ccnc2c1
Activity (HEK293 [8]): inactive

Clc1ccc2c(NCCCCCNc3ccnc4cc(Cl)ccc34)ccnc2c1
Activity (HEK293 [8]): inactive

Clc1ccc2c(NCCCCCCCCCCNc3ccnc4cc(Cl)ccc34)ccnc2c1
Activity (HEK293 [8]): inactive

Clc1ccc2c(NCCCCCCNc3ccnc4cc(Cl)ccc34)ccnc2c1
Activity (HEK293 [8]): inactive

CCCCCCCCCCCCCCCC(=O)OCC(CSC[C@H](N)C(=O)N[C@@H](CO)C(=O)O)OC(=O)CCCCCCCCCCCCCCC (stereo not given in full)
Activity (Mus musculus [16]): Active
Activity (Mus musculus [17]): Active
Activity (Mus musculus [18]): Active

CCCCCCCCCCCCCC(=O)OC(CCCCCCCCCCC)CC(=O)N[C@H]1[C@H](OC[C@H]2O[C@H](O)[C@H](NC(=O)CC(O)CCCCCCCCCCC)[C@@H](OC(=O)CC(O)CCCCCCCCCCC)[C@@H]2O)O[C@H](CO)[C@@H](OP(=O)(O)O)[C@@H]1OC(=O)CC(CCCCCCCCCCC)OC(=O)CCCCCCCCCCCCC (stereo not given in full)
Activity (Mus musculus [16]): Active
Activity (Mus musculus [17]): Active
Activity (Mus musculus [18]): Active

Clc1ccc2c(NCCCNc3ccnc4cc(Cl)ccc34)ccnc2c1
Activity (HEK293 [8]): inactive
